Laboratory results: patent publication US20250263424A1, “KRAS INHIBITORS” (Bristol-Myers Squibb Company, priority 2022, published 2025)

These molecules were tested against Recombinant GMPPNP-loaded KRAS G12C (KRAS-G12C(ON), active form) (Homo sapiens, UniProt P01116, G12C) (assay: KRAS G12C RAF Disruption Assay (HTRF)). Conditions: GMPPNP-loaded KRAS G12C 5 nM, GST-RAF1 RBD 9 nM, values given in μM, read-out: KRASG12C RAF Disruption Assay (IC50).
Assay type: biochemical
Method in brief: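 GMPPNP-loaded KRAS G12C (5 nM) preincubated with compound 20 min at room temperature in Tris pH 7.5 buffer with MgCl2, DTT and BSA. GST-RAF1 RBD (9 nM) then added for 20 min, and SA-Tb (0.25 nM) for 3 h. HTRF 520/495 ratio read; IC50 taken from the dose-response curve.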

Recombinant GMPPNP-loaded KRAS G12C (KRAS-G12C(ON), active form), sequence (P01116 1-188 isoform P01116-2 G12C): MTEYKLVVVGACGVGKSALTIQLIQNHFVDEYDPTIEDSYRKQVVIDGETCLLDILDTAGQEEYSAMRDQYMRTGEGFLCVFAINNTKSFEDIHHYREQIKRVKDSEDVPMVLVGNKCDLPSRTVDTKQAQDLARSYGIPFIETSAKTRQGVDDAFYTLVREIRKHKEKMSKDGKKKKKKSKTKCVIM

Row | IC50 | SMILES
1 | 14.1 µM | Cc1cc(N)nc(-c2c(Cl)cc3c(N4CCC5C4CCN5C(=O)/C(F)=C/c4nccs4)nc(OC[C@]45CCCN4C[C@H](F)C5)nc3c2F)c1C(F)(F)F (single isomer, unassigned) [Example 25, Isomer 1]
2 | 4.2 µM | Cc1cc(N)nc(-c2c(Cl)cc3c(N4CCC5C(C4)CN5C(=O)/C(F)=C/c4nccs4)nc(OC[C@]45CCCN4C[C@H](F)C5)nc3c2F)c1C(F)(F)F (stereo partly drawn) [Example 16, (Z)-1-(3-((7M)-7-(6-amino-4-methyl-3-(trifluoromethyl)pyridin-2-yl)-6-chloro-8-fluoro-2-(((2R,7aR)-2-fluorotetrahydro-1H-pyrrolizin-7a(5H)-yl)methoxy)quinazolin-4-yl)-3,7-diazabicyclo[4.2.0]octan-7-yl)-2-fluoro-3-(thiazol-2-yl)prop-2-en-1-one]
3 | 47.4 µM | Cc1cc(N)nc(-c2c(Cl)cc3c(N4CC5CN(C(=O)/C(F)=C/c6nccs6)C5C4)nc(OC[C@]45CCCN4C[C@H](F)C5)nc3c2F)c1C(F)(F)F (single isomer, unassigned) [Example 15, Isomer 2]

Same assay, conditions: GMPPNP-loaded KRAS G12C 5 nM, GST-RAF1 RBD 9 nM, values in nM, read-out: KRASG12C RAF Disruption Assay (IC50)

Row | IC50 | SMILES
4 | 0.016 µM | CN1CCC[C@H]1COc1nc(N2CCN(C(=O)/C(F)=C/c3nccs3)[C@@H](CC#N)C2)c2ccc(-c3cc(O)cc4ccccc34)c(F)c2n1 [Example 23, 2-((S)-1-((Z)-2-fluoro-3-(thiazol-2-yl)acryloyl)-4-(8-fluoro-7-(3-hydroxynaphthalen-1-yl)-2-(((S)-1-methylpyrrolidin-2-yl)methoxy)quinazolin-4-yl)piperazin-2-yl)acetonitrile]
5 | 1 µM | CN1CCC[C@H]1COc1nc(N2CCN(C(=O)/C(F)=C/c3ncccn3)[C@@H](CC#N)C2)c2ccc(-c3c(O)cccc3F)c(F)c2n1 [Example 55, 2-((2S)-1-((Z)-2-fluoro-3-(pyrimidin-2-yl)acryloyl)-4-(8-fluoro-7-(2-fluoro-6-hydroxyphenyl)-2-(((S)-1-methylpyrrolidin-2-yl)methoxy)quinazolin-4-yl)piperazin-2-yl)acetonitrile]
6 | 9 µM | Cc1cc(N)nc(-c2c(Cl)cc3c(N4CC[C@@H]5CC[C@H](C4)N5C(=O)/C(F)=C/c4nccs4)nc(OC[C@@]45CCCN4C[C@H](F)C5)nc3c2F)c1C(F)(F)F [Example 71, (Z)-1-((1R,6S)-3-(7-(6-amino-4-methyl-3-(trifluoromethyl)pyridin-2-yl)-6-chloro-8-fluoro-2-(((2R,7aS)-2-fluorotetrahydro-1H-pyrrolizin-7a(5H)-yl)methoxy)quinazolin-4-yl)-3,9-diazabicyclo[4.2.1]nonan-9-yl)-2-fluoro-3-(thiazol-2-yl)prop-2-en-1-one]

Continued, molecule first:

Row | SMILES | IC50
7 | CN1CCC[C@H]1COc1nc(N2CCN(C(=O)/C(F)=C/c3ncccn3)CC2)c2ccc(-c3cc(O)cc4ccccc34)c(F)c2n1 [Example 32, (S,Z)-2-fluoro-1-(4-(8-fluoro-7-(3-hydroxynaphthalen-1-yl)-2-((1-methylpyrrolidin-2-yl)methoxy)quinazolin-4-yl)piperazin-1-yl)-3-(pyrimidin-2-yl)prop-2-en-1-one] | 0.29 µM
8 | C#Cc1c(F)ccc2cc(O)cc(-c3ccc4c(N5CCN(C(=O)/C(F)=C/c6nccs6)CC5)nc(OC[C@@]56CCCN5C[C@H](F)C6)nc4c3F)c12 [Example 72, (Z)-1-(4-(7-(8-ethynyl-7-fluoro-3-hydroxynaphthalen-1-yl)-8-fluoro-2-(((2R,7aS)-2-fluorotetrahydro-1H-pyrrolizin-7a(5H)-yl)methoxy)quinazolin-4-yl)piperazin-1-yl)-2-fluoro-3-(thiazol-2-yl)prop-2-en-1-one] | 0.002 µM
9 | CN1CCC[C@H]1COc1nc(N2CCN(C(=O)/C(F)=C/c3ccccn3)[C@@H](CC#N)C2)c2ccc(-c3cc(O)cc4ccccc34)c(F)c2n1 [Example 24, 2-((S)-1-((Z)-2-fluoro-3-(pyridin-2-yl)acryloyl)-4-(8-fluoro-7-(3-hydroxynaphthalen-1-yl)-2-(((S)-1-methylpyrrolidin-2-yl)methoxy)quinazolin-4-yl)piperazin-2-yl)acetonitrile] | 0.022 µM
